Assay results published in patent publication US20210332024A1, “MODULATORS OF PIN1 ACTIVITY AND USES THEREOF” (Yeda Research and Development Co. Ltd., priority 2019, published 2021).

Key:
GST-Pin1 = GST-Pin1 (Homo sapiens, UniProt Q13526); assay: Fluorescence polarization (FP) competition assay; assay type: binding; conditions: FP assay, competition with fluorescein-labeled peptide, 250 nM GST-Pin1; read-out: Ki (apparent)
Experimental: Binding affinity to Pin1 was determined using a fluorescence polarization assay to assess competition with an N-terminal fluorescein-labeled peptide (Bth-D-phosThr-Pip-Nal), which was obtained from JPT Peptide Technologies and Proteintech Group. The indicated concentrations of candidate compound were pre-incubated for 12 hours at 4° C. with a solution containing 250 nM glutathione S-transferase (GST)-Pin1, 5 nM of fluorescein-labeled peptide probe, 10 μg/ml bovine serum albumin, 0.01% Tween-20 and 1 mM DTT (dithiothreitol) in a buffer of 10 mM HEPES, 10 mM NaCl and 1% glycerol (pH 7.4). Measurements of FP were performed in black 384-well plates (Corning) using an EnVision™ reader. Apparent Ki values (under the tested conditions) obtained from the FP assay results were derived from the Kenakin Ki equation:
Kenakin Ki=(Lb)(EC50)(Kd)/(Lo)(Ro)+Lb(Ro−Lo+Lb−Kd)
Sittampalam G. S. et al., Eli Lilly & Company and the National Center for Advancing Translational Sciences, 2004].
Covalent labeling of Pin1 was confirmed to translate into enzyme inhibition via a fluorescence polarization (FP) competition assay using a FITC-labeled substrate mimetic peptide inhibitor, as well as a chymotrypsin-coupled PPIase assay, using procedures described in Wei et al. [Nat Med 2015, 21:457-466].
The fluorescent polarization assay was performed in a dose-dependent and time-dependent manner, in order to further characterize the kinetic parameters of Pin1-3 binding to Pin1.

Pin1 in IMR32 cells = target: T1, Pin1 in IMR32 cells (Homo sapiens, UniProt Q13526); assay: Live cell competition assay with Pin1-3-DTB pull-down, IMR32 cells; assay type: cell-based; conditions: IMR32 cells, 0.25, 0.5 or 1 μM Pin1-3 or 1 μM Pin1-3-AcA
T1 construct: endogenous in cells; host or cells: IMR32
Experimental: (§1) The indicated cells were treated with increasing concentrations of either DMSO, Pin1-3, or Pin1-3-AcA for 5 hours. Cells were harvested by scraping and washed twice with PBS before lysis with 50 mM HEPES (pH 7.4), 1 mM EDTA, 10% glycerol, 1 mM TCEP, 150 mM NaCl, 1 mM EDTA, 0.5% NP-40, and protease inhibitor tablet (Roche cat. #4693159001). After clarifying (14,000 rpm for 15 minutes), samples were treated with the indicated concentrations of Pin1-3-DTB at 4° C. for 1 hour. Lysates were then incubated with streptavidin agarose resin (Thermo Scientific, cat. #20349) for 1.5 hour at 4° C. Beads were washed four times with 500 μl of washing buffer (50 mM HEPES (pH 7.5), 10 mM NaCl, 1 mM EDTA, 10% glycerol), then pelleted by centrifugation and dried. The beads were boiled for 5 minutes at 95° C. in 2×LDS+10% β-mercaptoethanol. Proteins of interest were then assessed via Western blotting using the bolt system (Life Technologies).
The indicated cells were plated in 10 cm plates with 2.5 million cells per plate in 6 ml of medium. The day after plating, cells were treated with the indicated concentrations of candidate inhibitor for the indicated time points. The cells were then washed two times with cold phosphate buffer saline (1 ml per 10 cm plate) and collected by scraping with a cell scraper. […]

[1] = test system: wild-type 8988T pancreatic cancer cells; assay: Organoid growth in Matrigel, wild-type PATU-8988T; assay type: cell-based; conditions: 1 μM, 9 days
Experimental: (§2) As three dimensional (3D) organoid models can reflect in vivo results better than monolayer cell culture [Baker et al., Trends Cancer Res 2016, 2:176-190], the anti-proliferative activity of Pin1-3 in PATU-8988T was further evaluated in wild-type or Pin1-knockout cells grown as organoids in Matrigel™ droplets. Cells were treated for 9 days with Pin1-3 (or Pin1-3-AcA or vehicle as a control), replenishing the compound in media every 3 days.

[2] = test system: Pin1-knockout pancreatic cancer cells; assay: Organoid growth in Matrigel, Pin1-knockout PATU-8988T; assay type: cell-based; conditions: 1 μM, 9 days
Experimental: as §2

Pin1 in PATU-8988T cells = target: T2, Pin1 in PATU-8988T cells (Homo sapiens, UniProt Q13526); assay: Live cell competition assay with Pin1-3-DTB pull-down, PATU-8988T cells; assay type: cell-based; conditions: 0.25 to 1 μM for 5 hours (Pin1-3-AcA 1 μM)
T2 construct: endogenous in cells; host or cells: PATU-8988T
Experimental: as §1
The indicated cells were plated in 10 cm plates with 2.5 million cells per plate in 6 ml of medium. The day after plating, cells were treated with the indicated concentrations of candidate inhibitor for the indicated time points. The cells were then washed two times with cold phosphate buffer saline (1 ml per 10 cm plate) and collected by scraping with a cell scraper. Cells were lysed in 50 mM HEPES (pH 7.4), 1 mM EDTA, 10% glycerol, 1 mM TCEP, 150 mM NaCl, 1 mM EDTA, 0.5% NP-40, and protease inhibitor tablet (Roche)-using 210 μl of cell lysis buffer per 10 cm plate of cells. After clarifying (14,000 rpm for 15 minutes), 9 μl of each lysate sample was combined with […] of 4×LDS+10% β-mercaptoethanol (in a ratio of 3:1), boiled for 5 minutes, and set aside for the input loading control. Then, 200 μl of each lysate sample was incubated with 1 μM of Pin1-3-DTB for 1 hour at 4° C. and processed as described hereinabove for the lysate pull-down assays.
In order to assess cell permeability of Pin1-3 as well as its ability to engage cellular Pin1, PATU-8988T cells were treated with Pin1-3 (0.25 to 1 μM) for 5 hours. After cell lysis, the lysates were incubated with Pin1-3-DTB (1 μM, 1 hour at 4° C.) and probe-labeled targets were pulled down with streptavidin beads.

[3] = target: T3, Pin1 in PAT8988T cell lysates (Homo sapiens, UniProt Q13526); assay: Lysate pull-down assay with Pin1-3-DTB; assay type: binding; conditions: 1 μM probe, 1 hour incubation in cell lysates
T3 construct: endogenous in cells; host or cells: PATU-8988T
Experimental: as §1

Chain of GST-Pin1 (Q13526 whole entry): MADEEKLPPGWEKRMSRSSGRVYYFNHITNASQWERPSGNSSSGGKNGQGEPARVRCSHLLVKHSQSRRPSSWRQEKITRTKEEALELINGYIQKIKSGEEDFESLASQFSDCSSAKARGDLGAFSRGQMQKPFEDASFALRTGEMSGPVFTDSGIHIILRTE
T1 sequence (Q13526 whole entry): as above
T3 sequence (Q13526 whole entry): as above
T2 sequence (Q13526 whole entry): as above

SMILES	Ki (GST-Pin1) [µM]	Engagement of Pin1 (competition with Pin1-3-DTB) (Pin1 in IMR32 cells)	Organoid growth [1]	Organoid growth [2]	Competition with Pin1-3-DTB for Pin1 binding (pull-down) (Pin1 in PATU-8988T cells)	Pull-down of Pin1 by the probe [3]
CC(=O)N(CC(C)(C)C)C1CCS(=O)(=O)C1 (stereo not shown) [Pin1-3-AcA, reference compound]	> 100	does not	no effect	no effect	no competition	
CC1NC(=O)NC1CCCCCC(=O)NCCOCCOCCOCCC(=O)NCC(C)(C)CN(C(=O)CCl)C1CCS(=O)(=O)C1 (stereo not shown) [Pin1-3-DTB]	0.038					complete pull-down
